Test results from US20260265305A1, “POLYPEPTIDE DERIVATIVE FOR ORAL DELIVERY” (Hangzhou Sciwind Biosciences Co., Ltd., priority 2023, published 2026).
Where two headings read alike, the source gives them in different places. Numbered stars: 1 amine (or outer) side, 2 acyl side, 3 side chain; on linkers, the order of the positions; unused ones are H or OH. Square brackets hold non-standard residues; d marks the D form. Peptide text beside a SMILES is read from it. * marks the point of attachment. C20 diacid = O=C(O)CCCCCCCCCCCCCCCCCCC(=O)*; γGlu = O=C(O)[C@H](CCC(=O)[*:2])N[*:1]; βAsp = O=C(O)[C@H](CC(=O)[*:2])N[*:1]; Trx = NC[C@H]1CC[C@H](C(=O)O)CC1; AEEA = NCCOCCOCC(=O)O; Inp = O=C(O)C1CCNCC1

Key:
amylin receptor (hAMY3R) = biological target: T1, amylin receptor (hAMY3R) (Homo sapiens, UniProt O60896+P30988); assay: Amylin receptor agonism testing, CRE-luciferase assay in stably transfected CHO-K1/Ga15/AMY3 cells; type: cell-based; details: for Fold change in activity against hAMY3R: relative to D1 as benchmark
T1 construct: host or cells: CHO-K1/Ga15/AMY3 cells, further stably transfected with a CRE-luciferase plasmid
T1 sequence (P30988 25-474): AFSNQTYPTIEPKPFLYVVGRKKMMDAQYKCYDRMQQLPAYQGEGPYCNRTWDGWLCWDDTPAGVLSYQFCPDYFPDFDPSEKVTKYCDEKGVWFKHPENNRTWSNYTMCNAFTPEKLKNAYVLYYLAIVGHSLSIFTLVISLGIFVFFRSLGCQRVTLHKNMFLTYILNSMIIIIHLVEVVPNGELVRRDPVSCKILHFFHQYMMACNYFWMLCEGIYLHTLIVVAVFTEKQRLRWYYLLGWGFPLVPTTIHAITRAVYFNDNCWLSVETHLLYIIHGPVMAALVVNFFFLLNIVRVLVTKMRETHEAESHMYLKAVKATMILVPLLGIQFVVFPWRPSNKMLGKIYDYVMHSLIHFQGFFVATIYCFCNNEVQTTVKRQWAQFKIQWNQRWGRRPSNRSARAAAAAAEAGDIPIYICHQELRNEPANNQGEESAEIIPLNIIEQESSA
T1 sequence (O60896 24-148): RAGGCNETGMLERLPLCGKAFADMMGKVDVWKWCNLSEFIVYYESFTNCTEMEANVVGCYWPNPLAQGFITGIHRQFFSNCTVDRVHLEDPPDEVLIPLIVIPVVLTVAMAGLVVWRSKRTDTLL

[1] = biological target: T2, calcitonin receptor (hCTR) (Homo sapiens, UniProt P30988); assay: Calcitonin receptor agonism, CRE-luciferase assay in stably transfected CHO-K1/CALCR/Ga15 cells; type: cell-based; details: for Fold change in activity against hCTR: relative to D1 as benchmark
T2 construct: host or cells: CHO-K1/CALCR/Ga15 cells, further stably transfected with a CRE-luciferase plasmid
T2 sequence (P30988 25-474): T1 sequence (P30988 25-474)
Experimental: Using the standard protocol, CHO-K1/CALCR/Ga15 cells (purchased from GenScript, with the calcitonin receptor constructed already) were transfected with a plasmid containing a luciferase expression cassette driven by multiple copies of cAMP response elements (CREs). The cells were cultured in an F12 medium containing 200 ug/mL Zeocin, 2 ug/mL puromycin, and 100 ug/mL hygromycin to afford a stably transfected calcitonin receptor/CRE-luc cell line.
To each well of a white 96-well plate was added 50 μL of the tested sample solution at a respective concentration.
The stably transfected calcitonin receptor/CRE-luc CHO cells were resuspended in the growth medium at a certain density, and 50 μL of the cell suspension was added at a density of about 20,000 cells per well to the white 96-well plate containing the tested sample solution. After incubation of 24 hours at 37° C. and 5% CO2, 100 μL of a Luciferase substrate was added to each well, incubated for 3 minutes, and finally was tested for luminescence on SpectraMax L (Molecular Devices) with the software SoftMax Pro 7.0.3 GxP. A standard curve was plotted using the fluorescent intensities for calculation of EC50.

[2] = Heat accelerated stability assay of polypeptide solutions (40° C., pH about 7.4), reversed phase chromatography; type: physicochemical; details: 40° C.; for Concentration change on 7 d / Concentration change on 26 d: pH about 7.4, 1 mg/mL; for Concentration change on 7 d / Purity change on 7 d: Day 7; for Concentration change on 26 d / Purity change on 26 d: Day 26; for Purity change on 7 d / Purity change on 26 d: reversed phase chromatography 214 nm; for Purity change on 7 d: purity on 7 d − purity on 0 d; for Purity change on 26 d: purity on 26 d − purity on 0 d
In short: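 Polypeptide derivative lyophilisate (1 mg/mL) with sodium dihydrogen phosphate (1.42 mg/mL) in water, pH about 7.4, sterile-filtered, vialed and held at 40° C; sampled on days 7 and 26. After centrifugation, concentration and purity (target/total peak area) by C18 RP-HPLC, TFA/ACN gradient, 280 and 214 nm.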

[3] = Animal study: weight change and accumulated food intake in SD rats after subcutaneous dosing; type: in vivo, SD (Sprague Dawley) rats; details: 10 nmol/kg subcutaneous; for effect on body weight of SD rats: FIGS. 1 and 3; for effect on accumulated food intake of SD rats: FIGS. 2 and 4
Text: SD (Sprague Dawley) rats weighing 200-250 g were used for this study. The rats were received at least 10-14 days before the study began such that they could accommodate to the experimental environment. After arrival, they were exposed to a reversed light/dark cycle (i.e., lights switched off in daytime and on in nighttime) for two weeks and were individually housed for the first week so as to ensure high data accuracy and test sensitivity. Throughout the acclimation and experiment period, the rats had free access to food and water. 5-8 rats were assigned to each testing group for the derivatives and were subcutaneously administered the derivatives at a dose of 10 nmol/kg or a vehicle (20 mM phosphate buffer, PB, pH 7.0), and the dosing timepoint was recorded for each group. After dosing, the rats were put back into cages where they were housed and could have access to food and water. Food consumption and weight change of the rats were recorded online or manually every 24 hours. Percent of weight change=(BWTn−BWT0)/BWT0*100%, wherein BW represented the value of body weight, and T0 and Tn represented the time point of dosing and n hours post dose respectively. Dots in the figures were represented utilizing mean±standard error of the mean (SEM).

[4] = incubation of 24 hours, Table 3, read-out: EC50, activity against the amylin receptor in cells
[5] = incubation of 24 hours, Table 4, read-out: EC50, activity against the calcitonin receptor in cells

Row | Compound | EC50 (amylin receptor (hAMY3R); [4]) [nM] | Fold change in activity against hAMY3R (amylin receptor (hAMY3R)) | EC50 [1, 5] [nM] | Fold change in activity against hCTR [1] | Concentration change on 26 d [2] | Purity change on 7 d [2] | Purity change on 26 d [2] | EC50 ([1]; Table 5 integrated analysis, read-out: hCTR EC50) [nM] | EC50 (amylin receptor (hAMY3R); Table 5 integrated analysis, read-out: hAMY3R EC50) [nM] | Concentration change on 7 d [2] | effect on body weight of SD rats [3] | effect on accumulated food intake of SD rats [3]
1 | CC(C)C[C@H](NC(=O)[C@H](CCCNC(=N)N)NC(=O)CNC(=O)[C@H](CC(C)C)NC(=O)[C@@H](NC(=O)[C@H](C)NC(=O)[C@@H](NC(=O)[C@H](CO)NC(=O)[C@H](CC(C)C)NC(=O)[C@H](CCC(N)=O)NC(=O)[C@H](CO)NC(=O)[C@H](C)NC(=O)COCCOCCNC(=O)COCCOCCNC(=O)C1CCN(C(=O)CCCCCCCCCCCCCCCCCCC(=O)O)CC1)[C@@H](C)O)C(C)C)C(=O)N[C@@H](CO)C(=O)N[C@@H](CC(=O)O)C(=O)N[C@@H](CCC(=O)O)C(=O)N[C@@H](CC(C)C)C(=O)N[C@@H](Cc1c[nH]cn1)C(=O)N[C@@H](CCCNC(=N)N)C(=O)N[C@@H](CC(C)C)C(=O)N[C@@H](CCC(N)=O)C(=O)N[C@@H](CC(=O)O)C(=O)N[C@@H](Cc1ccc(O)cc1)C(=O)N1CCC[C@H]1C(=O)N[C@@H](CCCNC(=N)N)C(=O)N[C@H](C(=O)N[C@@H](CC(=O)O)C(=O)N[C@H](C(=O)NCC(=O)N[C@@H](CO)C(=O)NCC(=O)N[C@@H](CO)C(=O)N1CCC[C@H]1C(N)=O)C(C)C)[C@@H](C)O [M29] ({C20 diacid-Inp-AEEA-AEEA}-ASQLSTAVLGRLSDELHRLQDYPRTDVGSGSP-NH2) | 0.006 | 6.000 | – | 0.551 | No change (concentration change of less than 1% (denoted as “no change”)) | No change | −1.2% | 0.156 | – | – | apparently further reduced | apparently further reduced
2 | CC(C)C[C@H](NC(=O)[C@H](CCCNC(=N)N)NC(=O)CNC(=O)[C@H](CC(C)C)NC(=O)[C@@H](NC(=O)[C@H](C)NC(=O)[C@@H](NC(=O)[C@H](CO)NC(=O)[C@H](CC(C)C)NC(=O)[C@H](CCC(N)=O)NC(=O)[C@H](CO)NC(=O)[C@H](C)NC(=O)COCCOCCNC(=O)COCCOCCNC(=O)CC[C@H](NC(=O)CCCCCCCCCCCCCCCCCCC(=O)O)C(=O)O)[C@@H](C)O)C(C)C)C(=O)N[C@@H](CO)C(=O)N[C@@H](CC(=O)O)C(=O)N[C@@H](CCC(=O)O)C(=O)N[C@@H](CC(C)C)C(=O)N[C@@H](Cc1c[nH]cn1)C(=O)N[C@@H](CCCNC(=N)N)C(=O)N[C@@H](CC(C)C)C(=O)N[C@@H](CCC(N)=O)C(=O)N[C@@H](CC(=O)O)C(=O)N[C@@H](Cc1ccc(O)cc1)C(=O)N1CCC[C@H]1C(=O)N[C@@H](CCCNC(=N)N)C(=O)N[C@H](C(=O)N[C@@H](CC(=O)O)C(=O)N[C@H](C(=O)NCC(=O)N[C@@H](CO)C(=O)NCC(=O)N[C@@H](CO)C(=O)N1CCC[C@H]1C(N)=O)C(C)C)[C@@H](C)O [M18] ({C20 diacid-γGlu-AEEA-AEEA}-ASQLSTAVLGRLSDELHRLQDYPRTDVGSGSP-NH2) | – | 2.25 | 0.069 | 1.246 | −1.148% | No change | nearly no noticeable change in purity | – | 0.016 | No change (concentration change of less than 1% (denoted as “no change”)) | apparently further reduced | apparently further reduced
3 | CC(C)C[C@H](NC(=O)[C@H](CCCNC(=N)N)NC(=O)CNC(=O)[C@H](CC(C)C)NC(=O)[C@@H](NC(=O)[C@H](C)NC(=O)[C@@H](NC(=O)[C@H](CO)NC(=O)[C@H](CC(C)C)NC(=O)[C@H](CCC(N)=O)NC(=O)[C@H](CO)NC(=O)[C@H](C)NC(=O)COCCOCCNC(=O)COCCOCCNC(=O)[C@H](CCC(=O)O)NC(=O)CCCCCCCCCCCCCCCCCCC(=O)O)[C@@H](C)O)C(C)C)C(=O)N[C@@H](CO)C(=O)N[C@@H](CC(=O)O)C(=O)N[C@@H](CCC(=O)O)C(=O)N[C@@H](CC(C)C)C(=O)N[C@@H](Cc1c[nH]cn1)C(=O)N[C@@H](CCCNC(=N)N)C(=O)N[C@@H](CC(C)C)C(=O)N[C@@H](CCC(N)=O)C(=O)N[C@@H](CC(=O)O)C(=O)N[C@@H](Cc1ccc(O)cc1)C(=O)N1CCC[C@H]1C(=O)N[C@@H](CCCNC(=N)N)C(=O)N[C@H](C(=O)N[C@@H](CC(=O)O)C(=O)N[C@H](C(=O)NCC(=O)N[C@@H](CO)C(=O)NCC(=O)N[C@@H](CO)C(=O)N1CCC[C@H]1C(N)=O)C(C)C)[C@@H](C)O [M23] ({C20 diacid}-E[AEEA][AEEA]ASQLSTAVLGRLSDELHRLQDYPRTDVGSGSP-NH2) | 0.017 | – | – | – | −7.782% | No change | nearly no noticeable change in purity | – | – | – | apparently further reduced | apparently further reduced

Continued, in another order:

Row | EC50 (amylin receptor (hAMY3R); [4]) [nM] | Fold change in activity against hAMY3R (amylin receptor (hAMY3R)) | EC50 [1, 5] [nM] | Fold change in activity against hCTR [1] | Concentration change on 26 d [2] | Purity change on 7 d [2] | Purity change on 26 d [2] | EC50 ([1]; Table 5 integrated analysis, read-out: hCTR EC50) [nM] | EC50 (amylin receptor (hAMY3R); Table 5 integrated analysis, read-out: hAMY3R EC50) [nM] | Compound | Concentration change on 7 d [2] | effect on body weight of SD rats [3] | effect on accumulated food intake of SD rats [3]
4 | 0.017 | 2.118 | 0.138 | 0.623 | −2.645% | −2.45% | −5.24% | – | – | CC(C)C[C@H](NC(=O)[C@H](CCCNC(=N)N)NC(=O)CNC(=O)[C@H](CC(C)C)NC(=O)[C@@H](NC(=O)[C@H](C)NC(=O)[C@@H](NC(=O)[C@H](CO)NC(=O)[C@H](CC(C)C)NC(=O)[C@H](CCC(N)=O)NC(=O)[C@H](CO)NC(=O)[C@H](C)NC(=O)COCCOCCNC(=O)COCCOCCNC(=O)C[C@H](NC(=O)CCCCCCCCCCCCCCCCCCC(=O)O)C(=O)O)[C@@H](C)O)C(C)C)C(=O)N[C@@H](CO)C(=O)N[C@@H](CC(=O)O)C(=O)N[C@@H](CCC(=O)O)C(=O)N[C@@H](CC(C)C)C(=O)N[C@@H](Cc1c[nH]cn1)C(=O)N[C@@H](CCCNC(=N)N)C(=O)N[C@@H](CC(C)C)C(=O)N[C@@H](CCC(N)=O)C(=O)N[C@@H](CC(=O)O)C(=O)N[C@@H](Cc1ccc(O)cc1)C(=O)N1CCC[C@H]1C(=O)N[C@@H](CCCNC(=N)N)C(=O)N[C@H](C(=O)N[C@@H](CC(=O)O)C(=O)N[C@H](C(=O)NCC(=O)N[C@@H](CO)C(=O)NCC(=O)N[C@@H](CO)C(=O)N1CCC[C@H]1C(N)=O)C(C)C)[C@@H](C)O [M25] ({C20 diacid-βAsp-AEEA-AEEA}-ASQLSTAVLGRLSDELHRLQDYPRTDVGSGSP-NH2) | −1.222% | apparently further reduced | apparently further reduced
5 | – | 9.000 | – | 0.161 | −2.286% | No change | −1.27% | – | – | CC(C)C[C@H](NC(=O)[C@H](CCCNC(=N)N)NC(=O)CNC(=O)[C@H](CC(C)C)NC(=O)[C@@H](NC(=O)[C@H](C)NC(=O)[C@@H](NC(=O)[C@H](CO)NC(=O)[C@H](CC(C)C)NC(=O)[C@H](CCC(N)=O)NC(=O)[C@H](CO)NC(=O)[C@H](C)NC(=O)COCCOCCNC(=O)COCCOCCNC(=O)[C@H]1CC[C@H](CNC(=O)CCCCCCCCCCCCCCCCCCC(=O)O)CC1)[C@@H](C)O)C(C)C)C(=O)N[C@@H](CO)C(=O)N[C@@H](CC(=O)O)C(=O)N[C@@H](CCC(=O)O)C(=O)N[C@@H](CC(C)C)C(=O)N[C@@H](Cc1c[nH]cn1)C(=O)N[C@@H](CCCNC(=N)N)C(=O)N[C@@H](CC(C)C)C(=O)N[C@@H](CCC(N)=O)C(=O)N[C@@H](CC(=O)O)C(=O)N[C@@H](Cc1ccc(O)cc1)C(=O)N1CCC[C@H]1C(=O)N[C@@H](CCCNC(=N)N)C(=O)N[C@H](C(=O)N[C@@H](CC(=O)O)C(=O)N[C@H](C(=O)NCC(=O)N[C@@H](CO)C(=O)NCC(=O)N[C@@H](CO)C(=O)N1CCC[C@H]1C(N)=O)C(C)C)[C@@H](C)O [M27] ({C20 diacid-Trx-AEEA-AEEA}-ASQLSTAVLGRLSDELHRLQDYPRTDVGSGSP-NH2) | – | apparently further reduced | apparently further reduced
